Results as given in ChEMBL document CHEMBL3817755, “Design, synthesis and biological evaluation of indazolepyrimidine based derivatives as anticancer agents with anti-angiogenic and antiproliferative activities” (Medchemcomm, 2016).

What was measured:
Assay type in all cases: functional
K562 = test: Growth inhibition of human K562 cells at 10 uM after 48 hrs by SRB assay; settings: K562, 48 h, read-out: GI
SR = test: Growth inhibition of human SR cells at 10 uM after 48 hrs by SRB assay; settings: read-out: GI
EKVX = test: Growth inhibition of human EKVX cells at 10 uM after 48 hrs by SRB assay; settings: read-out: GI
[1] = Growth inhibition of human HOP62 cells at 10 uM after 48 hrs by SRB assay; settings: HOP-62, 48 h, read-out: GI
[2] = Growth inhibition of human HOP92 cells at 10 uM after 48 hrs by SRB assay; settings: HOP-92, 48 h, read-out: GI
NCI-H226 = test: Growth inhibition of human NCI-H226 cells at 10 uM after 48 hrs by SRB assay; settings: NCI-H226, 48 h, read-out: GI
NCI-H23 = test: Growth inhibition of human NCI-H23 cells at 10 uM after 48 hrs by SRB assay; settings: NCI-H23, 48 h, read-out: GI
NCI-H322M = test: Growth inhibition of human NCI-H322M cells at 10 uM after 48 hrs by SRB assay; settings: read-out: GI
NCI-H460 = test: Growth inhibition of human NCI-H460 cells at 10 uM after 48 hrs by SRB assay; settings: NCI-H460, 48 h, read-out: GI
NCI-H522 = test: Growth inhibition of human NCI-H522 cells at 10 uM after 48 hrs by SRB assay; settings: NCI-H522, 48 h, read-out: GI
[3] = Growth inhibition of human COLO205 cells at 10 uM after 48 hrs by SRB assay; settings: COLO 205, 48 h, read-out: GI
[4] = Growth inhibition of human HCC2998 cells at 10 uM after 48 hrs by SRB assay; settings: HCC 2998, 48 h, read-out: GI
[5] = Growth inhibition of human HCT116 cells at 10 uM after 48 hrs by SRB assay; settings: HCT-116, 48 h, read-out: GI
[6] = Growth inhibition of human HCT15 cells at 10 uM after 48 hrs by SRB assay; settings: HCT-15, 48 h, read-out: GI
HT-29 = test: Growth inhibition of human HT-29 cells at 10 uM after 48 hrs by SRB assay; settings: HT-29, 48 h, read-out: GI
KM12 = test: Growth inhibition of human KM12 cells at 10 uM after 48 hrs by SRB assay; settings: KM12, 48 h, read-out: GI
[7] = Growth inhibition of human SF539 cells at 10 uM after 48 hrs by SRB assay; settings: SF-539, 48 h, read-out: GI
U-251 = test: Growth inhibition of human U251 cells at 10 uM after 48 hrs by SRB assay; settings: U-251, 48 h, read-out: GI
[8] = Growth inhibition of human LOXIMVI cells at 10 uM after 48 hrs by SRB assay; settings: LOX IMVI, read-out: GI
Malme-3M = test: Growth inhibition of human MALME-3M cells at 10 uM after 48 hrs by SRB assay; settings: read-out: GI
M14 = test: Growth inhibition of human M14 cells at 10 uM after 48 hrs by SRB assay; settings: M14, 48 h, read-out: GI
SK-MEL-28 = test: Growth inhibition of human SK-MEL-28 cells at 10 uM after 48 hrs by SRB assay; settings: SK-MEL-28, 48 h, read-out: GI
SK-MEL-5 = test: Growth inhibition of human SK-MEL-5 cells at 10 uM after 48 hrs by SRB assay; settings: SK-MEL-5, 48 h, read-out: GI
[9] = Growth inhibition of human UACC62 cells at 10 uM after 48 hrs by SRB assay; settings: UACC-62, 48 h, read-out: GI
[10] = Growth inhibition of human IGROV1 cells at 10 uM after 48 hrs by SRB assay; settings: IGROV-1, 48 h, read-out: GI
[11] = Growth inhibition of human OVCAR3 cells at 10 uM after 48 hrs by SRB assay; settings: OVCAR-3, 48 h, read-out: GI
[12] = Growth inhibition of human OVCAR4 cells at 10 uM after 48 hrs by SRB assay; settings: OVCAR-4, 48 h, read-out: GI
[13] = Growth inhibition of human OVCAR5 cells at 10 uM after 48 hrs by SRB assay; settings: OVCAR-5, 48 h, read-out: GI
[14] = Growth inhibition of human SKOV3 cells at 10 uM after 48 hrs by SRB assay; settings: SK-OV-3, 48 h, read-out: GI
786-0 = test: Growth inhibition of human 786-0 cells at 10 uM after 48 hrs by SRB assay; settings: 786-0, 48 h, read-out: GI
A498 = test: Growth inhibition of human A498 cells at 10 uM after 48 hrs by SRB assay; settings: A498, 48 h, read-out: GI
ACHN = test: Growth inhibition of human ACHN cells at 10 uM after 48 hrs by SRB assay; settings: read-out: GI
[15] = Growth inhibition of human Caki1 cells at 10 uM after 48 hrs by SRB assay; settings: CAKI-1, 48 h, read-out: GI
[16] = Growth inhibition of human RXF393 cells at 10 uM after 48 hrs by SRB assay; settings: RXF 393, 48 h, read-out: GI
SN12C = test: Growth inhibition of human SN12C cells at 10 uM after 48 hrs by SRB assay; settings: read-out: GI
[17] = Growth inhibition of human TK10 cells at 10 uM after 48 hrs by SRB assay; settings: TK-10, 48 h, read-out: GI
[18] = Growth inhibition of human UO31 cells at 10 uM after 48 hrs by SRB assay; settings: UO-31, 48 h, read-out: GI
[19] = Growth inhibition of human PC3 cells at 10 uM after 48 hrs by SRB assay; settings: PC-3, 48 h, read-out: GI
[20] = Growth inhibition of human DU145 cells at 10 uM after 48 hrs by SRB assay; settings: DU-145, 48 h, read-out: GI
MCF7 = test: Growth inhibition of human MCF7 cells at 10 uM after 48 hrs by SRB assay; settings: MCF7, 48 h, read-out: GI
[21] = Growth inhibition of human Hs 578T cells at 10 uM after 48 hrs by SRB assay; settings: read-out: GI
T47D = test: Growth inhibition of human T47D cells at 10 uM after 48 hrs by SRB assay; settings: read-out: GI
MDA-MB-468 = test: Growth inhibition of human MDA-MB-468 cells at 10 uM after 48 hrs by SRB assay; settings: MDA-MB-468, 48 h, read-out: GI

For `Fc1ccc(Nc2nccc(Nc3ccc4[nH]ncc4c3)n2)cc1`, the inhibition of growth at 10 µM (K562) was 61%, the inhibition of growth at 10 µM (SR) was 62% and the inhibition of growth at 10 µM (EKVX) was 29%. The inhibition of growth at 10 µM [1] was 41%, the inhibition of growth at 10 µM [2] was 81% and the inhibition of growth at 10 µM (NCI-H226) was 53%. It also gave an inhibition of growth at 10 µM (NCI-H23) of 27%, an inhibition of growth at 10 µM (NCI-H322M) of 27% and an inhibition of growth at 10 µM (NCI-H460) of 40%. It also gave an inhibition of growth at 10 µM (NCI-H522) of 57%, an inhibition of growth at 10 µM [3] of 39% and an inhibition of growth at 10 µM [4] of 1%. For the same compound, the inhibition of growth at 10 µM [5] was 45%, the inhibition of growth at 10 µM [6] was 38% and the inhibition of growth at 10 µM (HT-29) was 47%. The inhibition of growth at 10 µM (KM12) was 76%, the inhibition of growth at 10 µM [7] was 22% and the inhibition of growth at 10 µM (U-251) was 35%. The inhibition of growth at 10 µM [8] was 32%, the inhibition of growth at 10 µM (Malme-3M) was 3% and the inhibition of growth at 10 µM (M14) was 38%. The inhibition of growth at 10 µM (SK-MEL-28) was 11%, the inhibition of growth at 10 µM (SK-MEL-5) was 66% and the inhibition of growth at 10 µM [9] was 29%. The inhibition of growth at 10 µM [10] was 44%, the inhibition of growth at 10 µM [11] was 14% and the inhibition of growth at 10 µM [12] was 27%. It also gave an inhibition of growth at 10 µM [13] of 32%, an inhibition of growth at 10 µM [14] of 24% and an inhibition of growth at 10 µM (786-0) of 32%. It also gave an inhibition of growth at 10 µM (A498) of 51%, an inhibition of growth at 10 µM (ACHN) of 47% and an inhibition of growth at 10 µM [15] of 51%. The inhibition of growth at 10 µM [16] was 67%, the inhibition of growth at 10 µM (SN12C) was 40% and the inhibition of growth at 10 µM [17] was 38%. The inhibition of growth at 10 µM [18] was 61%, the inhibition of growth at 10 µM [19] was 54% and the inhibition of growth at 10 µM [20] was 34%. It also gave an inhibition of growth at 10 µM (MCF7) of 37%, an inhibition of growth at 10 µM [21] of 35% and an inhibition of growth at 10 µM (T47D) of 71%. It also gave an inhibition of growth at 10 µM (MDA-MB-468) of 53%.

Compound `NS(=O)(=O)c1ccc(Nc2nccc(Nc3ccc4[nH]ncc4c3)n2)cc1` has an inhibition of growth at 10 µM (K562) of 25%, an inhibition of growth at 10 µM (SR) of 34% and an inhibition of growth at 10 µM (EKVX) of -1%. It also gave an inhibition of growth at 10 µM [1] of 17%, an inhibition of growth at 10 µM [2] of 47% and an inhibition of growth at 10 µM (NCI-H226) of 28%. For the same compound, the inhibition of growth at 10 µM (NCI-H23) was 14%, the inhibition of growth at 10 µM (NCI-H322M) was -5% and the inhibition of growth at 10 µM (NCI-H460) was 1%. For the same compound, the inhibition of growth at 10 µM (NCI-H522) was 57%, the inhibition of growth at 10 µM [3] was -4% and the inhibition of growth at 10 µM [4] was -18%. For the same compound, the inhibition of growth at 10 µM [5] was 5%, the inhibition of growth at 10 µM [6] was -6% and the inhibition of growth at 10 µM (HT-29) was 9%. For the same compound, the inhibition of growth at 10 µM (KM12) was 22%, the inhibition of growth at 10 µM [7] was -3% and the inhibition of growth at 10 µM (U-251) was 19%. For the same compound, the inhibition of growth at 10 µM [8] was 14%, the inhibition of growth at 10 µM (Malme-3M) was -3% and the inhibition of growth at 10 µM (M14) was 5%. For the same compound, the inhibition of growth at 10 µM (SK-MEL-28) was -18%, the inhibition of growth at 10 µM (SK-MEL-5) was 11% and the inhibition of growth at 10 µM [9] was 11%. The inhibition of growth at 10 µM [10] was -3%, the inhibition of growth at 10 µM [11] was -10% and the inhibition of growth at 10 µM [12] was -12%. It also gave an inhibition of growth at 10 µM [13] of -10%, an inhibition of growth at 10 µM [14] of -4% and an inhibition of growth at 10 µM (786-0) of -1%. The inhibition of growth at 10 µM (A498) was 32%, the inhibition of growth at 10 µM (ACHN) was -7% and the inhibition of growth at 10 µM [15] was -4%. The inhibition of growth at 10 µM [16] was 11%, the inhibition of growth at 10 µM (SN12C) was 10% and the inhibition of growth at 10 µM [17] was -16%. The inhibition of growth at 10 µM [18] was 18%, the inhibition of growth at 10 µM [19] was 25% and the inhibition of growth at 10 µM [20] was -6%. The inhibition of growth at 10 µM (MCF7) was 40%, the inhibition of growth at 10 µM [21] was 17% and the inhibition of growth at 10 µM (T47D) was 50%. The inhibition of growth at 10 µM (MDA-MB-468) was 36%.
